According to patent publication US20250235501A1, “Methods and Compositions for Treating or Preventing Neurological Injury or Neurological Disorders” (University of Connecticut, priority 2024, published 2025):

Legend:
[1] = tested on: NMDARs (GluN1a, GluN2a, GluN2b); test: Surface expression of NMDARs in HEK293T cells co-transfected with NMDARs and TRPM2 (WB); format: cell-based, human; details: 10 μM peptide overnight; NMDARs/TRPM2 vs NMDARs/EGFP
Procedure: FIGS. 4K-4N show the surface expression of NMDARs in HEK-293T cells co-transfected with TRPM2 or EGFP with the treatment of PKC activator PMA (FIG. 4K) and inhibitor Stausporine (FIG. 4L). Membrane (Mem) and cytocol (Cyto) NMDARs were analyzed and averaged from 3 independent experiments with 1 μM PMA treatment (FIG. 4N) or 1 μM Stausporine treatment (FIG. 4L) for overnight. Pan-cadherin and β-tubulin were loading controls for membrane and cytosol protein, respectively (*, p<0.05, **, p<0.01, ***, p<0.001, unpaired t-test, mean±SEM, n=3/group).
FIGS. 5C-5F effects of TAT-EE3 on surface expression of NMDARs. HEK293T cells co-transfected with NMDARs with TRPM2 (+M2) or EGFP vector (Con) were treated with 10 μM TAT-SC (FIG. 5C) or TAT-EE3 (FIG. 5D) overnight. Membrane (Mem) and cytosol (Cyto) proteins of NMDARs in TAT-SC (FIG. 5E) and TAT-EE3 (FIG. 5F) treated groups were assessed by WBs and analyzed in reference to Pan-cadherin or β-tubulin (**, p<0.01, ***, p<0.001, unpaired t-test, mean±SEM). All the results were replicated in at least 3 independent experiments.
Pan-cadherin and β-tubulin were used as loading control for membrane and cytosolic protein extraction.
were ordered from GenScript Biotech, and dissolved in PBS to make a stock concentration at 10 mM. HEK-293T cells or isolated neurons were treated with TAT-SC or TAT-EE3 at a concentration of 10 μM for at least 8 h prior to use. Mice were injected with TAT-SC or TAT-EE3 intraperitoneally (ip) at a dose of 100 nmol/kg.
HEK293T cells were cultured in Dulbecco's Modified Eagle's medium (DMEM) (Thermal Fisher Scientific, 12100-038) supplemented with 10% BGS (HyClone, SH30541.03) and 0.5% penicillin/streptomycin (Thermal Fisher Scientific, 15140-122) at 37° C. and 5% CO2. 8 h prior to transfection, culture medium was replaced with DMEM supplemented only with 2.5% BGS. Cells were transfected when at a confluence about 80-90% using Lipofectamine® 3000 Transfection Kit (Thermal Fisher Scientific, 2232162) based on instruction.
NP-40/Triton lysis buffer ([…], 1% Triton™ X-100, 150 mM NaCl, 1 mM EDTA, 50 mM Tris, pH=8.0) containing proteinase inhibitors and phosphatase inhibitors was used to lyse both cultured cells and frozen brain tissue. Surface protein was extracted using Pierce® Cell Surface Protein Isolation Kit (Thermal Fisher Scientific, 89881) in transfected HEK-293T cells, and using ProteoExtract™ Native Membrane Protein Extraction Kit (Calbiochem, 444810) in brain tissue based on instructions. […] Protein concentration was measured using Pierce™ Rapid Gold BCA Protein Assay Kit.
30-50 μg of total protein was loaded and separated proteins were transferred to Nitrocellulose membranes. […] Band intensity was quantified using ImageJ software and normalized with appropriate loading controls.

[2] = molecular target: T1, TRPM2 interaction with GluN2a (Rattus norvegicus, UniProt Q00959); test: Co-IP of TRPM2 with GluN2a in co-transfected HEK293T cells; format: cell-based, human; details: 10 μM peptide overnight; IP anti-GluN2a, WB anti-Flag
T1 construct: TRPM2 plasmid a gift 17928; 17924; 17925; host or cells: HEK293T
T1 sequence (Q00959 23-1464, other chains not shown): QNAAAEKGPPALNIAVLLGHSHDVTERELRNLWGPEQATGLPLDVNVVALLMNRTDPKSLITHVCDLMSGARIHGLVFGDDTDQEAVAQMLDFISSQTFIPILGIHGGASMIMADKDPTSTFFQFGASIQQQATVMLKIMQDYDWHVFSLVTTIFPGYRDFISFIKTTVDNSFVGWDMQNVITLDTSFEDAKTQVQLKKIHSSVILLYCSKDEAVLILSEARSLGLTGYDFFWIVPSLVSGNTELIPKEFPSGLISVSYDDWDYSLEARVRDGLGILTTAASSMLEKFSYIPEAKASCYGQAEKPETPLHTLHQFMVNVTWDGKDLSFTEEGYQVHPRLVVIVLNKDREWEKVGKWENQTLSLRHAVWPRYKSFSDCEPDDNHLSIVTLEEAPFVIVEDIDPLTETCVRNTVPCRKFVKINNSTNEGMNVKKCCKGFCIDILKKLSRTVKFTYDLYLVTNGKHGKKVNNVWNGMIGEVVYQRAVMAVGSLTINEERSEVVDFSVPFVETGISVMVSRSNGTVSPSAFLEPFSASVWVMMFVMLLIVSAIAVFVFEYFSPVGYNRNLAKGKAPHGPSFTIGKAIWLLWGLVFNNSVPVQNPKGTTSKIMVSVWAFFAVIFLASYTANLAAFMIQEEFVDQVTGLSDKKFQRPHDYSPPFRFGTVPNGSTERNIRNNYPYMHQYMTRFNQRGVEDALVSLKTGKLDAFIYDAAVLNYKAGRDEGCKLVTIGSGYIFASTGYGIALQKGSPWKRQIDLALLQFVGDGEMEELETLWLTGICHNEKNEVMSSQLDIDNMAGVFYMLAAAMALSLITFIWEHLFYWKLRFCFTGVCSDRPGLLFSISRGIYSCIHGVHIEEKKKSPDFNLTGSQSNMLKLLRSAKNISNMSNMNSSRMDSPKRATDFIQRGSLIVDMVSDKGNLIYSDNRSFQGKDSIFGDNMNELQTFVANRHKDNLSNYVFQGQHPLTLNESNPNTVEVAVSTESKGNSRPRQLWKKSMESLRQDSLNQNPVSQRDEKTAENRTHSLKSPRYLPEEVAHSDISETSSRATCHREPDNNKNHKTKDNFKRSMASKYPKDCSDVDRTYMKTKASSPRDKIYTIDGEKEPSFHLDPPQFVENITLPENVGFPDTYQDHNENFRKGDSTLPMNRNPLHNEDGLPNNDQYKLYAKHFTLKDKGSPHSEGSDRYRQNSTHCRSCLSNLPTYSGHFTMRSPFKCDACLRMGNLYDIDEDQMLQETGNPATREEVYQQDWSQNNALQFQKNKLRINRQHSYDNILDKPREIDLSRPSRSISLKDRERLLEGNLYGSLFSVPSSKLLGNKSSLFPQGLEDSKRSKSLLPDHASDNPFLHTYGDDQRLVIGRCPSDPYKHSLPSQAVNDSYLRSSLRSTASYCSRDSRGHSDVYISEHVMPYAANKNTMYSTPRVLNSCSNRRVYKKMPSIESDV
Procedure: FIGS. 5A and 5B show the effects of TAT-EE3 on interaction of TRPM2 and NMDARs. Co-IP tests of NMDARs with WT or EE3 domain mutants of TRPM2 (Flag-tagged) in co-transfected HEK293T cells. WT TRPM2 groups were treated with 10 μM TAT-SC or TAT-EE3 overnight. Lysates were IP's with anti-GluN2a (FIG. 5A) or anti-GluN2b (FIG. 5B), and probed by WBs with anti-Flag. IgG was used as control for IP. Similar to the mutants TRPM2-ΔEE3 and TRPM2-EQE, TAT-EE3 disrupted TRPM2 interaction with GluN2a and GluN2b.
were ordered from GenScript Biotech, and dissolved in PBS to make a stock concentration at 10 mM. HEK-293T cells or isolated neurons were treated with TAT-SC or TAT-EE3 at a concentration of 10 μM for at least 8 h prior to use. Mice were injected with TAT-SC or TAT-EE3 intraperitoneally (ip) at a dose of 100 nmol/kg. […]
NP-40 lysis buffer ([…], 150 mM NaCl, 1 mM EDTA, 50 mM Tris, pH=8.0) containing proteinase inhibitors (Sigma-Aldrich, 539131-10VL) and phosphatase inhibitors (Thermal Fisher Scientific, 78428) was used to lyse both cultured cells and frozen brain tissue. […] Protein concentration was measured using Pierce™ Rapid Gold BCA Protein Assay Kit (Thermal Fisher Scientific, A53225). […] Then samples were ready for western blotting analysis.

**Q.** With “TAT-EE3: membrane permeable disrupting peptide, sequence YGRKKRRQRRREEDTDSSEEMLALAEE (SEQ ID NO: 4)” as the substance, how does the “enhancement of NMDAR surface expression by TRPM2” value [1] read?
**A.** eliminated the enhancement

**Q.** And the “interaction of TRPM2 with GluN2a (co-IP)” value [2]?
**A.** completely disrupted
